These results are taken from ChEMBL document CHEMBL5143638, “Natural aloe emodin-hybridized sulfonamide aminophosphates as novel potential membrane-perturbing and DNA-intercalating agents against Enterococcus faecalis” (Bioorg Med Chem Lett, 2022).

In general, MIC refers to the least concentration at which growth counts as inhibited.

Type in all cases: functional
The subject of assay [1] is Klebsiella pneumoniae. Put plainly: Antibacterial activity against Klebsiella pneumoniae assessed as inhibition of bacterial growth measured after 24 hrs by CLSI based broth microdilution method. (In general: Dilution methods test growth across graded concentrations, often in twofold steps.)
Assay [2] relates to Pseudomonas aeruginosa. Briefly: Antibacterial activity against Pseudomonas aeruginosa assessed as inhibition of bacterial growth measured after 24 hrs by CLSI based broth microdilution method.
Assay [3] deals with Staphylococcus aureus. Put plainly: Potency index, ratio of norfloxacin MIC to test compound MIC for antibacterial activity against methicillin-resistant Staphylococcus aureus N315 assessed as inhibition of bacterial growth measured after 24 hrs by CLSI based broth microdilution method.
A further assay concerns Acinetobacter baumannii. Briefly: Antibacterial activity against Acinetobacter baumannii assessed as inhibition of bacterial growth measured after 24 hrs by CLSI based broth microdilution method.
Assay [4] has as its system Escherichia coli. Briefly: Antibacterial activity against Escherichia coli ATCC 25922 assessed as inhibition of bacterial growth measured after 24 hrs by CLSI based broth microdilution method.
In assay [5] the test system is Pseudomonas aeruginosa. Put plainly: Antibacterial activity against Pseudomonas aeruginosa ATCC 27853 assessed as inhibition of bacterial growth measured after 24 hrs by CLSI based broth microdilution method.
Assay [6] deals with Escherichia coli. Briefly: Antibacterial activity against Escherichia coli assessed as inhibition of bacterial growth measured after 24 hrs by CLSI based broth microdilution method.
A further assay has as its system Enterococcus faecalis. Briefly: Antibacterial activity against Enterococcus faecalis assessed as inhibition of bacterial growth measured after 24 hrs by CLSI based broth microdilution method.
The subject of assay [7] is Staphylococcus aureus. Put plainly: Antibacterial activity against methicillin-resistant Staphylococcus aureus N315 assessed as inhibition of bacterial growth measured after 24 hrs by CLSI based broth microdilution method.
Assay [8] has as its system Staphylococcus aureus. Briefly: Antibacterial activity against Staphylococcus aureus assessed as inhibition of bacterial growth measured after 24 hrs by CLSI based broth microdilution method.
The test system of assay [9] is Staphylococcus aureus. Briefly: Antibacterial activity against Staphylococcus aureus ATCC 25923 assessed as inhibition of bacterial growth measured after 24 hrs by CLSI based broth microdilution method.
In assay [10] the test system is Klebsiella pneumoniae. Put plainly: Potency index, ratio of sulfamethoxazole MIC to test compound MIC for antibacterial activity against Klebsiella pneumoniae assessed as inhibition of bacterial growth measured after 24 hrs by CLSI based broth microdilution method.
Assay [11] has as its system Klebsiella pneumoniae. Put plainly: Potency index, ratio of aloe emodin MIC to test compound MIC for antibacterial activity against Klebsiella pneumoniae assessed as inhibition of bacterial growth measured after 24 hrs by CLSI based broth microdilution method.
The subject of assay [12] is Staphylococcus aureus. Put plainly: Potency index, ratio of sulfamethoxazole MIC to test compound MIC for antibacterial activity against Staphylococcus aureus ATCC 25923 assessed as inhibition of bacterial growth measured after 24 hrs by CLSI based broth microdilution method.
Assay [13] deals with Staphylococcus aureus. Briefly: Potency index, ratio of sulfamethoxazole MIC to test compound MIC for antibacterial activity against Staphylococcus aureus assessed as inhibition of bacterial growth measured after 24 hrs by CLSI based broth microdilution method.
The subject of assay [14] is Klebsiella pneumoniae. Put plainly: Potency index, ratio of norfloxacin MIC to test compound MIC for antibacterial activity against Klebsiella pneumoniae assessed as inhibition of bacterial growth measured after 24 hrs by CLSI based broth microdilution method.
Assay [15] relates to Staphylococcus aureus. Briefly: Potency index, ratio of norfloxacin MIC to test compound MIC for antibacterial activity against Staphylococcus aureus assessed as inhibition of bacterial growth measured after 24 hrs by CLSI based broth microdilution method.
Assay [16] concerns Staphylococcus aureus. Put plainly: Potency index, ratio of sulfisoxazole MIC to test compound MIC for antibacterial activity against Staphylococcus aureus assessed as inhibition of bacterial growth measured after 24 hrs by CLSI based broth microdilution method.

Converted amounts (≈) assume the structure as drawn.

With `CCOP(=O)(OCC)C(Nc1ccc(S(=O)(=O)Nc2ccccn2)cc1)c1cc(O)c2c(c1)C(=O)c1cccc(O)c1C2=O` (stereo not drawn), the MIC in the assay with Klebsiella pneumoniae [1] came to 256 µg/mL (≈ 402 µM); in the assay with Pseudomonas aeruginosa [2], 256 µg/mL (≈ 402 µM); with Acinetobacter baumannii it was 128 µg/mL (≈ 201 µM); in the assay on Escherichia coli [4], 256 µg/mL (≈ 402 µM); with Pseudomonas aeruginosa [5], 64 µg/mL (≈ 100 µM); in the assay with Escherichia coli [6] it was 256 µg/mL (≈ 402 µM). The minimum inhibitory concentration (MIC) in the assay on Enterococcus faecalis amounted to 64 µg/mL (≈ 100 µM); with Staphylococcus aureus [7] it was 2 µg/mL (≈ 3.14 µM); in the assay on Staphylococcus aureus [8], 64 µg/mL (≈ 100 µM); in the assay with Staphylococcus aureus [9], 128 µg/mL (≈ 201 µM). Besides, the Ratio in the assay with Staphylococcus aureus [3] is reported as 4.
Regarding `CCOP(=O)(OCC)C(Nc1ccc(S(=O)(=O)Nc2cc(C)on2)cc1)c1cc(O)c2c(c1)C(=O)c1cccc(O)c1C2=O` (stereo not drawn), the MIC in the assay with Klebsiella pneumoniae [1] worked out at 2 µg/mL (≈ 3.12 µM); with Pseudomonas aeruginosa [2] it was 32 µg/mL (≈ 49.9 µM); in the assay with Acinetobacter baumannii it was 64 µg/mL (≈ 99.8 µM); in the assay on Escherichia coli [4], 32 µg/mL (≈ 49.9 µM); with Pseudomonas aeruginosa [5] it was 32 µg/mL (≈ 49.9 µM); with Escherichia coli [6], 64 µg/mL (≈ 99.8 µM). Besides, the minimum inhibitory concentration (MIC) in the assay on Enterococcus faecalis worked out at 256 µg/mL (≈ 399 µM); with Staphylococcus aureus [7] it was 64 µg/mL (≈ 99.8 µM); with Staphylococcus aureus [8] it was 0.5 µg/mL (≈ 0.779 µM); in the assay on Staphylococcus aureus [9], 0.5 µg/mL (≈ 0.779 µM). The Ratio in the assay with Klebsiella pneumoniae [10] was 4; in the assay with Klebsiella pneumoniae [11] it was 32; with Staphylococcus aureus [12], 64; in the assay with Staphylococcus aureus [13], 16; in the assay on Klebsiella pneumoniae [14], 2.
`CCCCOP(=O)(OCCCC)C(Nc1ccc(S(=O)(=O)Nc2onc(C)c2C)cc1)c1cc(O)c2c(c1)C(=O)c1cccc(O)c1C2=O` (stereo not drawn): the minimum inhibitory concentration (MIC) in the assay with Klebsiella pneumoniae [1] stood at 16 µg/mL (≈ 22.5 µM); in the assay on Pseudomonas aeruginosa [2] it was 8 µg/mL (≈ 11.2 µM); in the assay with Acinetobacter baumannii, 8 µg/mL (≈ 11.2 µM); in the assay on Escherichia coli [4], 8 µg/mL (≈ 11.2 µM); in the assay on Pseudomonas aeruginosa [5] it was 256 µg/mL (≈ 360 µM); in the assay on Escherichia coli [6], 256 µg/mL (≈ 360 µM). Besides, the minimum inhibitory concentration (MIC) in the assay with Enterococcus faecalis stood at 128 µg/mL (≈ 180 µM); in the assay on Staphylococcus aureus [7], 64 µg/mL (≈ 89.9 µM); with Staphylococcus aureus [8], 4 µg/mL (≈ 5.62 µM); with Staphylococcus aureus [9], 2 µg/mL (≈ 2.81 µM). Moreover, the Ratio amounted to 2 in the assay with Staphylococcus aureus [15] and 4 in the assay with Staphylococcus aureus [16].
On to `Nc1ccc(S(N)(=O)=O)cc1` [SULFANILAMIDE], for which the minimum inhibitory concentration (MIC) with Klebsiella pneumoniae [1] was 8 µg/mL (≈ 46.5 µM); in the assay on Pseudomonas aeruginosa [2] it was 4 µg/mL (≈ 23.2 µM); with Acinetobacter baumannii, 4 µg/mL (≈ 23.2 µM); in the assay with Escherichia coli [4] it was 4 µg/mL (≈ 23.2 µM); in the assay with Pseudomonas aeruginosa [5] it was 2 µg/mL (≈ 11.6 µM); in the assay on Escherichia coli [6], 64 µg/mL (≈ 372 µM). In addition, the MIC with Enterococcus faecalis was found to be 128 µg/mL (≈ 743 µM); in the assay with Staphylococcus aureus [7] it was 256 µg/mL (≈ 1490 µM); in the assay with Staphylococcus aureus [8] it was 128 µg/mL (≈ 743 µM); in the assay with Staphylococcus aureus [9], 256 µg/mL (≈ 1490 µM).
In the case of `COP(=O)(OC)C(Nc1ccc(S(=O)(=O)Nc2onc(C)c2C)cc1)c1cc(O)c2c(c1)C(=O)c1cccc(O)c1C2=O` (stereo not drawn), the MIC is 32 µg/mL (≈ 51 µM) with Klebsiella pneumoniae [1]; 8 µg/mL (≈ 12.7 µM) in the assay with Pseudomonas aeruginosa [2]; 4 µg/mL (≈ 6.37 µM) in the assay with Acinetobacter baumannii; 0.5 µg/mL (≈ 0.797 µM) with Escherichia coli [4]; 256 µg/mL (≈ 408 µM) with Pseudomonas aeruginosa [5]; 128 µg/mL (≈ 204 µM) with Escherichia coli [6]. Also, the minimal inhibitory concentration (MIC) with Enterococcus faecalis came to 64 µg/mL (≈ 102 µM); in the assay with Staphylococcus aureus [7], 2 µg/mL (≈ 3.19 µM); in the assay on Staphylococcus aureus [8] it was 2 µg/mL (≈ 3.19 µM); with Staphylococcus aureus [9] it was 8 µg/mL (≈ 12.7 µM).
